Experimental data from ChEMBL document CHEMBL1122891, “Substituted 5H-dibenz[b,g]-1,4-oxazocines and related amino acids with antiinflammatory activity” (1985).

Legend:
Type in all cases: functional
Rattus norvegicus [1] = test: Minimum ulcerogenic dose was evaluated 24 hours after peroral administration; value may range from 60-120
Rattus norvegicus [2] = test: Percent reduction in swelling of the left hind paw in rat determined in adjuvant arthritis test, 25 mg/kg dose was perorally; settings: route oral
Rattus norvegicus [3] = test: Percent reduction in swelling of the left hind paw in rat when 75 mg/kg of dose was injected perorally which was determined in adjuvant arthritis test; settings: route oral
Rattus norvegicus [4] = test: Minimum ulcerogenic dose was evaluated 24 hours after peroral administration; value may range from 400-800
Rattus norvegicus [5] = organism: Rattus norvegicus; test: Activity relative to fenclofenac determined in adjuvant arthritis test
Rattus norvegicus [6] = test: Minimum ulcerogenic dose was evaluated 24 hours after peroral administration; value may range from 25-50
Rattus norvegicus [7] = test: Minimum ulcerogenic dose was evaluated 24 hours after peroral administration; value may range from 50-80
Rattus norvegicus [8] = test: Minimum ulcerogenic dose was evaluated 24 hours after peroral administration; value may range from 50-100
Rattus norvegicus [9] = test: Percent reduction in swelling of the left hind paw in rat when 10 mg/kg of dose was injected perorally which was determined in adjuvant arthritis test; settings: route oral
Rattus norvegicus [10] = test: Minimum ulcerogenic dose was evaluated 24 hours after peroral administration
Rattus norvegicus [11] = test: Percent reduction in swelling of the left hind paw in rat determined in adjuvant arthritis test, 50 mg/kg dose perorally; settings: route oral
Rattus norvegicus [12] = test: Percent reduction in swelling of the left hind paw in rat when 100 mg/kg of dose was injected perorally which was determined in adjuvant arthritis test; settings: route oral
Rattus norvegicus [13] = test: Minimum ulcerogenic dose was evaluated 24 hours after peroral administration; value may range from 100-200
Rattus norvegicus [14] = test: Percent reduction in swelling of the left hind paw in rat when 25 mg/kg of dose was injected perorally which was determined in adjuvant arthritis test; settings: route oral
Rattus norvegicus [15] = test: Percent reduction in swelling of the left hind paw in rat when 20 mg/kg of dose was injected perorally which was determined in adjuvant arthritis test; settings: route oral
Rattus norvegicus [16] = test: Percent reduction in swelling of the left hind paw in rat when 35 mg/kg of dose was injected perorally which was determined in adjuvant arthritis test; settings: route oral
Rattus norvegicus [17] = test: Percent reduction in swelling of the left hind paw in rat when 2 mg/kg of dose was injected perorally which was determined in adjuvant arthritis test; settings: route oral
Rattus norvegicus [18] = test: Minimum ulcerogenic dose was evaluated 24 hours after peroral administration; value may range from 12.5-25
Rattus norvegicus [19] = test: Percent reduction in swelling of the left hind paw in rat when 40 mg/kg of dose was injected perorally which was determined in adjuvant arthritis test; settings: route oral

Cc1c(N)c(Oc2ccccc2CC(=O)O)c(Cl)c(C)c1Cl
MUD (Rattus norvegicus [1]): 60 mg/kg | Reduction (Rattus norvegicus [2]): 4%

COc1cc(Cl)cc2c1Oc1ccc(C)cc1CCN2
Reduction (Rattus norvegicus [3]): 1%

Cc1cccc(N)c1Oc1ccccc1CC(=O)O
MUD (Rattus norvegicus [4]): 400 mg/kg | Reduction (Rattus norvegicus [2]): 32% | Relative potency (Rattus norvegicus [5]): 1.9

CNc1cccc(C)c1Oc1ccccc1CC(=O)O
Reduction (Rattus norvegicus [2]): 46% | MUD (Rattus norvegicus [6]): 25 mg/kg | Relative potency (Rattus norvegicus [5]): 6.5

COC(=O)Cc1ccccc1Oc1c(N)cc(Cl)cc1Cl
Reduction (Rattus norvegicus [2]): 38% | Relative potency (Rattus norvegicus [5]): 7.5 | MUD (Rattus norvegicus [7]): 50 mg/kg

Nc1c(Cl)c(Cl)cc(Cl)c1Oc1ccccc1CC(=O)O
MUD (Rattus norvegicus [8]): 50 mg/kg | Reduction (Rattus norvegicus [9]): 37% | Relative potency (Rattus norvegicus [5]): 11.6

NC(=O)Cc1ccccc1Oc1c(Cl)cccc1[N+](=O)[O-]
MUD (Rattus norvegicus [10]): >800 mg/kg | Relative potency (Rattus norvegicus [5]): 1.1 | Reduction (Rattus norvegicus [11]): 36%

Nc1cc(C(F)(F)F)ccc1Oc1ccccc1CC(=O)O
Reduction (Rattus norvegicus [12]): 36% | MUD (Rattus norvegicus [4]): 400 mg/kg | Relative potency (Rattus norvegicus [5]): 2.1

CC(=O)N1CCc2ccccc2Oc2c(Cl)cc(Cl)cc21
Reduction (Rattus norvegicus [3]): 10%

CNc1cccc(Cl)c1Oc1ccccc1CC(=O)O
MUD (Rattus norvegicus [10]): <12.5 mg/kg | Relative potency (Rattus norvegicus [5]): 15

O=C(O)Cc1ccccc1Oc1c(Cl)cccc1[N+](=O)[O-]
Reduction (Rattus norvegicus [3]): 45% | MUD (Rattus norvegicus [13]): 100 mg/kg | Relative potency (Rattus norvegicus [5]): 2

Cc1cc(Cl)c2c(c1)NCCc1ccccc1O2
Reduction (Rattus norvegicus [14]): 23%

Cc1cccc(N(C)C)c1Oc1ccccc1CC(=O)O
MUD (Rattus norvegicus [13]): 100 mg/kg | Reduction (Rattus norvegicus [15]): 38% | Relative potency (Rattus norvegicus [5]): 2.1

CNc1cc(Cl)cc(Cl)c1Oc1ccccc1CC(=O)OC
MUD (Rattus norvegicus [8]): 50 mg/kg | Relative potency (Rattus norvegicus [5]): 2.5 | Reduction (Rattus norvegicus [11]): 36%

Clc1cc(Cl)c2c(c1)NCCc1ccccc1O2
Reduction (Rattus norvegicus [14]): 41% | Relative potency (Rattus norvegicus [5]): 2.1

Nc1ccccc1Oc1ccccc1CC(=O)O
Reduction (Rattus norvegicus [16]): 2%

CNc1cc(Cl)cc(Cl)c1Oc1ccccc1CC(=O)O
Relative potency (Rattus norvegicus [5]): 13 | Reduction (Rattus norvegicus [17]): 22%

Cc1cc(Cl)cc(N)c1Oc1ccccc1CC(=O)O
Reduction (Rattus norvegicus [9]): 34% | MUD (Rattus norvegicus [6]): 25 mg/kg | Relative potency (Rattus norvegicus [5]): 5.6

Nc1cc(Cl)cc(Cl)c1Oc1ccccc1CC(=O)O
MUD (Rattus norvegicus [18]): 12.5 mg/kg | Reduction (Rattus norvegicus [9]): 41% | Relative potency (Rattus norvegicus [5]): 6.8

O=[N+]([O-])c1cccc(Cl)c1Oc1ccccc1CCO
MUD (Rattus norvegicus [8]): 50 mg/kg | Reduction (Rattus norvegicus [12]): 37%

Nc1cc(Br)cc(Br)c1Oc1ccccc1CC(=O)O
Reduction (Rattus norvegicus [2]): 50% | MUD (Rattus norvegicus [6]): 25 mg/kg | Relative potency (Rattus norvegicus [5]): 8.6

Cc1ccc2c(c1)CCNc1cc(C)cc(Cl)c1O2
Reduction (Rattus norvegicus [19]): 19%

O=C(Cc1ccccc1Oc1c(Cl)cccc1[N+](=O)[O-])OC1OC(=O)c2ccccc21 (configuration not stated)
MUD (Rattus norvegicus [10]): >800 mg/kg | Relative potency (Rattus norvegicus [5]): 0.7 | Reduction (Rattus norvegicus [11]): 30%

Nc1cccc(Cl)c1Oc1ccccc1CC(=O)O
Reduction (Rattus norvegicus [2]): 36% | MUD (Rattus norvegicus [6]): 25 mg/kg | Relative potency (Rattus norvegicus [5]): 3.5
